Source: patent publication US20220144815A1, “1,3,4-OXADIAZOLES AND THEIR DERIVATIVES AS NEW ANTIFUNGAL AGENTS” (Bayer Aktiengesellschaft, priority 2018, published 2022)

Experiment: Log P by HPLC on reversed phase columns, method [a] (EEC directive 79/831 Annex V.A8)
Format: physicochemical
Conditions: reversed phase HPLC column; Method A: LC-UV, acidic range, 0.1% formic acid in water and acetonitrile; read-out: Log P
Protocol: Measurement of Log P values as provided herein was performed according to EEC directive 79/831 Annex V.A8 by HPLC (High Performance Liquid Chromatography) on reversed phase columns with the following methods: • ^[a] Log P value is determined by measurement of LC-UV, in an acidic range, with 0.1% formic acid in water and acetonitrile as eluent (linear gradient from 10% acetonitrile to 95% acetonitrile). • ^[b] Log P value is determined by measurement of LC-UV, in a neutral range, with 0.001 molar ammonium acetate solution in water and acetonitrile as eluent (linear gradient from 10% acetonitrile to 95% acetonitrile). • ^[c] Log P value is determined by measurement of LC-UV, in an acidic range, with 0.1% phosphoric acid and acetonitrile as eluent (linear gradient from 10% acetonitrile to 95% acetonitrile). If more than one Log P value is available within the same method, all the values are given and separated by “+”. Calibration was done with straight-chain alkan2-ones (with 3 to 16 carbon atoms) with known Log P values (measurement of Log P values using retention times with linear interpolation between successive alkanones). Lambda-max-values were determined using UV-spectra from 200 nm to 400 nm and the peak values of the chromatographic signals In table 1, the log P values were determined according to method [^a]. In table 2, the log P values were determined according to method [^a].

Row | chromatographic logP | Structure (SMILES)
1 | 3.23 | COC(=O)c1ccc(-c2nnc(C(F)(F)F)s2)cc1 [I.011, methyl 4-[5-(trifluoromethyl)-1,3,4-thiadiazol-2-yl]benzoate]

Same assay, conditions: reversed phase HPLC column; log P determined according to method [a] (HPLC on reversed phase columns); read-out: logP

Row | chromatographic logP | Structure (SMILES)
2 | 4.21 | FC(F)c1nnc(-c2cnc(-c3cccc(Cl)c3)nc2)o1 [I.100, 2-(3-chlorophenyl)-5-[5-(difluoromethyl)-1,3,4-oxadiazol-2-yl]pyrimidine]
3 | 3.6 | FC(F)c1nnc(-c2cnc(-c3ccc(Cl)cc3)nc2)o1 [I.101, 2-(4-chlorophenyl)-5-[5-(difluoromethyl)-1,3,4-oxadiazol-2-yl]pyrimidine]
4 | 2.59 | FC(F)c1nnc(-c2cnc(-c3ccnc(Cl)c3)nc2)o1 [I.102, 2-(2-chloropyridin-4-yl)-5-[5-(difluoromethyl)-1,3,4-oxadiazol-2-yl]pyrimidine]
5 | 2.59 | FC(F)c1nnc(-c2cnc(-c3cncc(Cl)c3)nc2)o1 [I.103, 2-(5-chloropyridin-3-yl)-5-[5-(difluoromethyl)-1,3,4-oxadiazol-2-yl]pyrimidine]
6 | 1.64 | COC(=O)C1(Nc2ncc(-c3nnc(C(F)F)o3)cn2)CC1 [I.104, methyl 1-({5-[5-(difluoromethyl)-1,3,4-oxadiazol-2-yl]pyrimidin-2-yl}amino)cyclopropanecarboxylate]
7 | 3.1 | FC(F)c1nnc(-c2cnc(N3Cc4ccccc4C3)nc2)o1 [I.106, 2-{5-[5-(difluoromethyl)-1,3,4-oxadiazol-2-yl]pyrimidin-2-yl}isoindoline]
8 | 2.51 | COc1ccccc1Cc1ncc(-c2nnc(C(F)F)o2)cn1 [I.107, 5-[5-(difluoromethyl)-1,3,4-oxadiazol-2-yl]-2-(2-methoxybenzyl)pyrimidine]
9 | 2.8 | COc1ccccc1Nc1ncc(-c2nnc(C(F)F)o2)cn1 [I.109, 5-[5-(difluoromethyl)-1,3,4-oxadiazol-2-yl]-N-(2-methoxyphenyl)pyrimidin-2-amine]
10 | 2.62 | Fc1ccccc1CNc1ncc(-c2nnc(C(F)F)o2)cn1 [I.111, 5-[5-(difluoromethyl)-1,3,4-oxadiazol-2-yl]-N-(2-fluorobenzyl)pyrimidin-2-amine]
11 | 2.92 | FC(F)c1nnc(-c2cnc(Nc3ccccc3Cl)nc2)o1 [I.114, N-(2-chlorophenyl)-5-[5-(difluoromethyl)-1,3,4-oxadiazol-2-yl]pyrimidin-2-amine]
12 | 1.94 | CCOC(=O)C1(Nc2ncc(-c3nnc(C(F)F)o3)cn2)CC1 [I.117, ethyl 1-({5-[5-(difluoromethyl)-1,3,4-oxadiazol-2-yl]pyrimidin-2-yl}amino)cyclopropanecarboxylate]
13 | 3.1 | FC(F)c1nnc(-c2cnc(Nc3ccccc3C3CC3)nc2)o1 [I.119, N-(2-cyclopropylphenyl)-5-[5-(difluoromethyl)-1,3,4-oxadiazol-2-yl]pyrimidin-2-amine]
14 | 2.86 | C[C@@H](Nc1ncc(-c2nnc(C(F)F)o2)cn1)c1ccc(F)cc1 [I.125a, 5-[5-(difluoromethyl)-1,3,4-oxadiazol-2-yl]-N-[(1R)-1-(4-fluorophenyl)ethyl]pyrimidin-2-amine]
15 | 2.85 | C[C@H](Nc1ncc(-c2nnc(C(F)F)o2)cn1)c1ccc(F)cc1 [I.125b, 5-[5-(difluoromethyl)-1,3,4-oxadiazol-2-yl]-N-[(1S)-1-(4-fluorophenyl)ethyl]pyrimidin-2-amine]
16 | 3.57 | FC(F)c1nnc(-c2cnc(NC3(C4CCCCC4)CC3)nc2)o1 [I.126, N-(1-cyclohexylcyclopropyl)-5-[5-(difluoromethyl)-1,3,4-oxadiazol-2-yl]pyrimidin-2-amine]
17 | 2.95 | FC(F)c1nnc(-c2cnc(NCc3ccccc3Cl)nc2)o1 [I.128, N-(2-chlorobenzyl)-5-[5-(difluoromethyl)-1,3,4-oxadiazol-2-yl]pyrimidin-2-amine]
18 | 2.67 | Fc1cccc(F)c1CNc1ncc(-c2nnc(C(F)F)o2)cn1 [I.129, N-(2,6-difluorobenzyl)-5-[5-(difluoromethyl)-1,3,4-oxadiazol-2-yl]pyrimidin-2-amine]
19 | 3.3 | Fc1ccccc1Nc1ncc(-c2nnc(C(F)(F)F)s2)cn1 [I.130, N-(2-fluorophenyl)-5-[5-(trifluoromethyl)-1,3,4-thiadiazol-2-yl]pyrimidin-2-amine]
20 | 3.5 | CCC(C)(Nc1ncc(-c2nnc(C(F)F)o2)cn1)c1ccccc1 (stereo not shown) [I.138, 5-[5-(difluoromethyl)-1,3,4-oxadiazol-2-yl]-N-(2-phenylbutan-2-yl)pyrimidin-2-amine]
21 | 2.51 | FC(F)c1nnc(-c2cnc(OC3(c4ccccc4)COC3)nc2)o1 [I.142, 5-[5-(difluoromethyl)-1,3,4-oxadiazol-2-yl]-2-[(3-phenyloxetan-3-yl)oxy]pyrimidine]
22 | 1.66 | FC(F)c1nnc(-c2cnc(OC3(c4ccccn4)COC3)nc2)o1 [I.143, 5-[5-(difluoromethyl)-1,3,4-oxadiazol-2-yl]-2-{[3-(pyridin-2-yl)oxetan-3-yl]oxy}pyrimidine]
23 | 3.28 | CCON(Cc1ccccc1)c1ncc(-c2nnc(C(F)F)o2)cn1 [I.148, N-benzyl-N-{5-[5-(difluoromethyl)-1,3,4-oxadiazol-2-yl]pyrimidin-2-yl}-O-ethylhydroxylamine]
24 | 3.19 | Fc1ccc(C2(Oc3ncc(-c4nnc(C(F)F)o4)cn3)CC2)cc1 [I.149, 5-[5-(difluoromethyl)-1,3,4-oxadiazol-2-yl]-2-{[1-(4-fluorophenyl)cyclopropyl]oxy}pyrimidine]
25 | 2.57 | Cc1ccc(C2(Nc3ncc(-c4nnc(C(F)F)o4)cn3)COC2)cc1 [I.158, 5-[5-(difluoromethyl)-1,3,4-oxadiazol-2-yl]-N-[3-(4-methylphenyl)oxetan-3-yl]pyrimidin-2-amine]
26 | 3.22 | Fc1ccccc1C1(Nc2ncc(-c3nnc(C(F)F)s3)cn2)CC1 [I.162, 5-[5-(difluoromethyl)-1,3,4-thiadiazol-2-yl]-N-[1-(2-fluorophenyl)cyclopropyl]pyrimidin-2-amine]
27 | 3.34 | FC(F)c1nnc(-c2cnc(NC3(c4ccccc4Cl)CC3)nc2)o1 [I.163, N-[1-(2-chlorophenyl)cyclopropyl]-5-[5-(difluoromethyl)-1,3,4-oxadiazol-2-yl]pyrimidin-2-amine]
28 | 2.95 | Fc1cccc(F)c1C1(Nc2ncc(-c3nnc(C(F)F)o3)cn2)CC1 [I.164, 5-[5-(difluoromethyl)-1,3,4-oxadiazol-2-yl]-N-[1-(2,6-difluorophenyl)cyclopropyl]pyrimidin-2-amine]
29 | 3.25 | Fc1cccc(F)c1C1(Oc2ncc(-c3nnc(C(F)F)o3)cn2)CC1 [I.167, 5-[5-(difluoromethyl)-1,3,4-oxadiazol-2-yl]-2-{[1-(2,6-difluorophenyl)cyclopropyl]oxy}pyrimidine]
30 | 3.34 | CC(C)(Nc1ncc(-c2nnc(C(F)F)o2)cn1)c1c(F)cccc1F [I.168, 5-[5-(difluoromethyl)-1,3,4-oxadiazol-2-yl]-N-[2-(2,6-difluorophenyl)propan-2-yl]pyrimidin-2-amine]

Same assay, conditions: reversed phase HPLC column; method [a], HPLC on reversed phase columns; read-out: logP

Row | chromatographic logP | Structure (SMILES)
31 | 3.81 | FC(F)c1nnc(-c2cnc(NC3(c4ccccc4Cl)CCC3)nc2)o1 [I.174, N-[1-(2-chlorophenyl)cyclobutyl]-5-[5-(difluoromethyl)-1,3,4-oxadiazol-2-yl]pyrimidin-2-amine]
